Assay results reported in ChEMBL document CHEMBL5678816, “A Next-Generation TRK Kinase Inhibitor Overcomes Acquired Resistance to Prior TRK Kinase Inhibition in Patients with TRK Fusion-Positive Solid Tumors” (Cancer Discov, 2017).
Activity calls are given as the source filed them. The rule behind the calls is not given here.

Assays:
[1] = biological target: Serine/threonine-protein kinase Nek7 (Homo sapiens) (UniProt Q8TDX7); experiment: Inhibition of NEK7 (unknown origin) at 1 uM in presence of ATP relative to control; values are per cent of control
Homo sapiens [2] = species on record: Homo sapiens; experiment: Inhibition of PKCgamma (unknown origin) at 1 uM in presence of ATP relative to control; values are per cent of control
[3] = biological target: CDK3/Cyclin E (Homo sapiens) (UniProt P24864+Q00526); experiment: Inhibition of CDK3/cyclinE (unknown origin) at 1 uM in presence of ATP relative to control; values are per cent of control
[4] = biological target: LIM domain kinase 1 (Homo sapiens) (UniProt P53667); experiment: Inhibition of LIMK1 (unknown origin) at 1 uM in presence of ATP relative to control; values are per cent of control
[5] = biological target: Serine/threonine-protein kinase BRSK2 (Homo sapiens) (UniProt Q8IWQ3); experiment: Inhibition of BrSK2 (unknown origin) at 1 uM in presence of ATP relative to control; values are per cent of control
COR-L105 = experiment: Inhibition of cell proliferation in human COR-L105 cells upto 10 umol/L incubated for 72 hrs by DAPI staining based analysis; type: functional; conditions: dose <= 10.0 µmol/L
[6] = biological target: Dual specificity protein kinase CLK2 (Homo sapiens) (UniProt P49760); experiment: Inhibition of CLK2 (unknown origin) at 1 uM in presence of ATP relative to control; values are per cent of control
[7] = Cmin in pediatric patient with recurrent ETV6-NTRK3-rearranged infantile fibrosarcoma at 60 mg administered twice a day as liquid formulation for 29 day and measured 12 hrs post dose by LC-MS/MS analysis; type: ADME; conditions: human, in vivo, read-out: Cmin
[8] = biological target: Serine/threonine-protein kinase ULK3 (Homo sapiens) (UniProt Q6PHR2); experiment: Inhibition of ULK3 (unknown origin) at 1 uM in presence of ATP relative to control; values are per cent of control
[9] = Inhibition of N-terminal 3FLAG-tagged ETV6-TRKC G696A mutant (unknown origin) expressed in NIH3T3 cells assessed as ERK1/2 phosphorylation incubated for 1 hrs by flow cytometric analysis; type: cell-based, Homo sapiens
[10] = biological target: Death-associated protein kinase 2 (Homo sapiens) (UniProt Q9UIK4); experiment: Inhibition of DAPK2 (unknown origin) at 1 uM in presence of ATP relative to control; values are per cent of control
Homo sapiens [11] = species on record: Homo sapiens; experiment: Inhibition of Abl-P (unknown origin) at 1 uM in presence of ATP relative to control; values are per cent of control
[12] = biological target: MAP kinase-activated protein kinase 3 (Homo sapiens) (UniProt Q16644); experiment: Inhibition of MAPKAP-K3 (unknown origin) at 1 uM in presence of ATP relative to control; values are per cent of control
[13] = biological target: Macrophage colony-stimulating factor 1 receptor (Homo sapiens) (UniProt P07333); experiment: Inhibition of Fms (unknown origin) at 1 uM in presence of ATP relative to control; values are per cent of control
[14] = biological target: Casein kinase I isoform gamma-1 (Homo sapiens) (UniProt Q9HCP0); experiment: Inhibition of CK1gamma1 (unknown origin) at 1 uM in presence of ATP relative to control; values are per cent of control
[15] = biological target: Hepatocyte growth factor receptor (Homo sapiens) (UniProt P08581); experiment: Inhibition of Met (unknown origin) at 1 uM in presence of ATP relative to control; values are per cent of control
[16] = biological target: Serine/threonine-protein kinase PAK 4 (Homo sapiens) (UniProt O96013); experiment: Inhibition of PAK4 (unknown origin) at 1 uM in presence of ATP relative to control; values are per cent of control
NCI-H441 = experiment: Inhibition of cell proliferation in human NCI-H441 cells upto 10 umol/L incubated for 72 hrs by DAPI staining based analysis; type: functional; conditions: dose <= 10.0 µmol/L
[17] = biological target: Serine/threonine-protein kinase 24 (Homo sapiens) (UniProt Q9Y6E0); experiment: Inhibition of MST3 (unknown origin) at 1 uM in presence of ATP relative to control; values are per cent of control
[18] = biological target: Ephrin type-A receptor 5 (Homo sapiens) (UniProt P54756); experiment: Inhibition of EphA5 (unknown origin) at 1 uM in presence of ATP relative to control; values are per cent of control
CML-T1 = experiment: Inhibition of cell proliferation in human CML-T1 cells upto 10 umol/L incubated for 72 hrs by DAPI staining based analysis; type: functional; conditions: dose <= 10.0 µmol/L
SH-4 = experiment: Inhibition of cell proliferation in human SH-4 cells upto 10 umol/L incubated for 72 hrs by DAPI staining based analysis; type: functional; conditions: dose <= 10.0 µmol/L
CGTH-W-1 = experiment: Inhibition of cell proliferation in human CGTH-W-1 cells upto 10 umol/L incubated for 72 hrs by DAPI staining based analysis; type: functional; conditions: dose <= 10.0 µmol/L
[19] = biological target: Tyrosine-protein kinase Mer (Homo sapiens) (UniProt Q12866); experiment: Inhibition of Mer (unknown origin) at 1 uM in presence of ATP relative to control; values are per cent of control
[20] = biological target: Protein kinase C beta type (Homo sapiens) (UniProt P05771); experiment: Inhibition of PKCbetal (unknown origin) at 1 uM in presence of ATP relative to control; values are per cent of control
[21] = biological target: Tyrosine-protein kinase TXK (Homo sapiens) (UniProt P42681); experiment: Inhibition of Txk (unknown origin) at 1 uM in presence of ATP relative to control
[22] = biological target: Ribosomal protein S6 kinase alpha-3 (Homo sapiens) (UniProt P51812); experiment: Inhibition of Rsk2 (unknown origin) at 1 uM in presence of ATP relative to control; values are per cent of control
[23] = biological target: Serine/threonine-protein kinase Sgk3 (Homo sapiens) (UniProt Q96BR1); experiment: Inhibition of SGK3 (unknown origin) at 1 uM in presence of ATP relative to control; values are per cent of control
[24] = biological target: Serine/threonine-protein kinase Chk2 (Homo sapiens) (UniProt O96017); experiment: Inhibition of CHK2 (unknown origin) at 1 uM in presence of ATP relative to control; values are per cent of control
Serine/threonine-protein kinase Chk2 (Homo sapiens), sequence (O96017 whole entry): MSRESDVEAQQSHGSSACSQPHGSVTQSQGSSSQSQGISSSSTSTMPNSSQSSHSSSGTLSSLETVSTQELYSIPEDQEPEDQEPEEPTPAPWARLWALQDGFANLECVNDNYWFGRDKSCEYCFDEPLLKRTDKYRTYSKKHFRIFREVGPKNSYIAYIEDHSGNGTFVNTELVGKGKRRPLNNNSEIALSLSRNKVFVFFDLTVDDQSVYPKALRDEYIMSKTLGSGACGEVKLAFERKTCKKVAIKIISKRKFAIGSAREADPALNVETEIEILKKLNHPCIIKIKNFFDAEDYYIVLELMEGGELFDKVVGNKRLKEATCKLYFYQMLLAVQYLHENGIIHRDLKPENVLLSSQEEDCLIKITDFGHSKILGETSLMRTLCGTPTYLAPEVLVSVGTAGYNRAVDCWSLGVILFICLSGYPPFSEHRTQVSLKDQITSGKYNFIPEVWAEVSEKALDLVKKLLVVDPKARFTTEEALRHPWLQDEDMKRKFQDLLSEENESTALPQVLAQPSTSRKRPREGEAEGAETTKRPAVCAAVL

Macrophage colony-stimulating factor 1 receptor (Homo sapiens), sequence (P07333 whole entry, canonical isoform): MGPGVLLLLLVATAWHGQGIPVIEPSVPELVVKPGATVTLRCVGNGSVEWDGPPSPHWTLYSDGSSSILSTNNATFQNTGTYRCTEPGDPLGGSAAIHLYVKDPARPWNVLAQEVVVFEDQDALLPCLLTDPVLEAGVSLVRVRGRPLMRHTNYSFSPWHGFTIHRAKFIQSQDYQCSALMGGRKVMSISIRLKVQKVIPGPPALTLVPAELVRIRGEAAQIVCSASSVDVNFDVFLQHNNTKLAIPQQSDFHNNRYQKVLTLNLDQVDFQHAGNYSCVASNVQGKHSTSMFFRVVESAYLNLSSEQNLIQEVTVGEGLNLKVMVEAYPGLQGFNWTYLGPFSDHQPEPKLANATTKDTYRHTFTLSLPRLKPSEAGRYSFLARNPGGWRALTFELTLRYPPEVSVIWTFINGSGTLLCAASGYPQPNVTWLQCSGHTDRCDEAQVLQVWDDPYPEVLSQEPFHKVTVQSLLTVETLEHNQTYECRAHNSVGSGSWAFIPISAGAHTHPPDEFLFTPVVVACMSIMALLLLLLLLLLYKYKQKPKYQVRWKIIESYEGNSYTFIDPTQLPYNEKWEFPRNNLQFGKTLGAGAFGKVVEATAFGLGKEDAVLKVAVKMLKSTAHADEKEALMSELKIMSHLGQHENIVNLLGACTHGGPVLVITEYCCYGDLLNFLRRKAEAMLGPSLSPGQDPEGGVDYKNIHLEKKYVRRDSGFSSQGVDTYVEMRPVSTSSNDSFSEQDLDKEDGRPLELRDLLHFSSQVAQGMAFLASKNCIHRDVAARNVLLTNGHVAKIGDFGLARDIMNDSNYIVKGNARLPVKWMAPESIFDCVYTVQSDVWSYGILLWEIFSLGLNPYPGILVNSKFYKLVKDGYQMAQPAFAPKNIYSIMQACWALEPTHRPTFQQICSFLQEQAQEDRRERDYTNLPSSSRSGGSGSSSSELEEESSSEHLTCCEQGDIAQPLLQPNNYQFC
Casein kinase I isoform gamma-1 (Homo sapiens), sequence (Q9HCP0 whole entry, looked up, canonical isoform): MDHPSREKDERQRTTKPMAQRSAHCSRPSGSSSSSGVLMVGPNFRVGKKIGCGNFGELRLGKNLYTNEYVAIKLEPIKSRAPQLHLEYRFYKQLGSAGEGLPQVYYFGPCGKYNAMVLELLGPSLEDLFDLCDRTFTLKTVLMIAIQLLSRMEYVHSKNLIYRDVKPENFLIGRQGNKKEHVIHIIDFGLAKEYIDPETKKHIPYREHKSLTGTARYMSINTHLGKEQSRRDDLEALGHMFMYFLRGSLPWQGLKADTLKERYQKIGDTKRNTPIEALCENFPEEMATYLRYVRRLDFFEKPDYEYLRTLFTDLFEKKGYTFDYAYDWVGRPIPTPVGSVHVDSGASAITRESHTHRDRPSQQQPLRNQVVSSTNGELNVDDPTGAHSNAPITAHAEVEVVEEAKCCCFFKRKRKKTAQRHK
Ribosomal protein S6 kinase alpha-3 (Homo sapiens), sequence (P51812 whole entry): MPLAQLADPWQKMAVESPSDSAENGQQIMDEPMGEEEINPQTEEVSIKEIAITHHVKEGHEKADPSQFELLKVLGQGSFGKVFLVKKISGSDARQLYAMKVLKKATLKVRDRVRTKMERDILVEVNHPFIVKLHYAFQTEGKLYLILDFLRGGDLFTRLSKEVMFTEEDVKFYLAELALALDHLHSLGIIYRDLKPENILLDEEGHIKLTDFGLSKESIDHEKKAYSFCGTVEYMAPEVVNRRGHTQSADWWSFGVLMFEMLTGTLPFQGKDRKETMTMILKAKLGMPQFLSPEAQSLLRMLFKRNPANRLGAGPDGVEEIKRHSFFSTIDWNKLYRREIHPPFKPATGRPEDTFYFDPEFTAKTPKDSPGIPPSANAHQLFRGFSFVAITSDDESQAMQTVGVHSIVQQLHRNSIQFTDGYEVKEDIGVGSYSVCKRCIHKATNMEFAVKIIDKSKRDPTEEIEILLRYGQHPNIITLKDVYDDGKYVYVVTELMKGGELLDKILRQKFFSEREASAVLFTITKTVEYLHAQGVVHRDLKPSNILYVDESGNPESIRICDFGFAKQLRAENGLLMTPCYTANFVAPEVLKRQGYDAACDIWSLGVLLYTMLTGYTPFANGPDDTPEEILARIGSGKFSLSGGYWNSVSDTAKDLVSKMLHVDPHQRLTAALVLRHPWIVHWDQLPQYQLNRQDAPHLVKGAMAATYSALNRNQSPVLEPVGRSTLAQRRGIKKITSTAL
LIM domain kinase 1 (Homo sapiens), sequence (P53667 whole entry, looked up, the tested form may be a part): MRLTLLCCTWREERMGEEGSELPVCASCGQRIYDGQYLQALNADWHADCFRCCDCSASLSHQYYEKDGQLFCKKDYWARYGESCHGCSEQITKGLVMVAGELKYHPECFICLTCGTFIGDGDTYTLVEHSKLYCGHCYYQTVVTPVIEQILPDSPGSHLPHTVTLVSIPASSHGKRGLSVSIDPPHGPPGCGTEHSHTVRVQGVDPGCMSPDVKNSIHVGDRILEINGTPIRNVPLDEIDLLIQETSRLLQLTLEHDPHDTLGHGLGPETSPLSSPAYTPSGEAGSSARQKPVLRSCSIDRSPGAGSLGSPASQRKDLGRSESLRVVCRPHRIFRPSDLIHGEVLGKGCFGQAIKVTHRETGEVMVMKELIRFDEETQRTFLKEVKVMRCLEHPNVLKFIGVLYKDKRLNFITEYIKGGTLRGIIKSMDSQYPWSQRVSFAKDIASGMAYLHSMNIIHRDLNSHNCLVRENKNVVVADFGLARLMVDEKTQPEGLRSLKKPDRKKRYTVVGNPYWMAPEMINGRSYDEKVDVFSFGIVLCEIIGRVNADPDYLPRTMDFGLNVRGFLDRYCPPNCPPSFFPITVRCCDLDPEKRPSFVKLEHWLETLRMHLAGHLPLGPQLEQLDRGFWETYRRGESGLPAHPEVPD
Serine/threonine-protein kinase Sgk3 (Homo sapiens), sequence (Q96BR1 whole entry): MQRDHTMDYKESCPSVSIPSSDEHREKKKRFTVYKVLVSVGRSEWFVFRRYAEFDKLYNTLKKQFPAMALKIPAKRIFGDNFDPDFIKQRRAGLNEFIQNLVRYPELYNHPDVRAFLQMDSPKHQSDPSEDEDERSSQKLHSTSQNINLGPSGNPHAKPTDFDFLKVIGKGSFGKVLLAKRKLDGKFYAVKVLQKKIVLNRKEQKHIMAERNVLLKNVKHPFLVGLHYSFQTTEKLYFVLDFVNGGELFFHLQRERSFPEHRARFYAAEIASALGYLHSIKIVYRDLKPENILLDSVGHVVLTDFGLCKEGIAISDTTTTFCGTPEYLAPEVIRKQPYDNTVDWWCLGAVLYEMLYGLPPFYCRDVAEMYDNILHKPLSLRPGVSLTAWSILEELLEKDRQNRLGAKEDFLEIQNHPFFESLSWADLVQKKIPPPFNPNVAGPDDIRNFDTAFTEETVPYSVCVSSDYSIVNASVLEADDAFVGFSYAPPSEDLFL
CDK3/Cyclin E (Homo sapiens), sequence (P24864 whole entry, looked up, the tested form may be a part): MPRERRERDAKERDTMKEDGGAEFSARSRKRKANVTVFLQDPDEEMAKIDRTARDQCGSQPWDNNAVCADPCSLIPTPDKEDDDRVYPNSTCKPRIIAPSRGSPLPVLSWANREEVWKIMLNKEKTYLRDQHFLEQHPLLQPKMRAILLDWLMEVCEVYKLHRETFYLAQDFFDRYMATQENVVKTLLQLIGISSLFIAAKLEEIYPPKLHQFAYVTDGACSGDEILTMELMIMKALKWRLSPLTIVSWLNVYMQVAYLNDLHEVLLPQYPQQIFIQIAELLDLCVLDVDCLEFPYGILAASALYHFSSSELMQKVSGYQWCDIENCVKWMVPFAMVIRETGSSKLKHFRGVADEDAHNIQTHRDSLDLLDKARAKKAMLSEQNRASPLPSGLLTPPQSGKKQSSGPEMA
CDK3/Cyclin E (Homo sapiens), sequence (Q00526 whole entry, looked up, the tested form may be a part): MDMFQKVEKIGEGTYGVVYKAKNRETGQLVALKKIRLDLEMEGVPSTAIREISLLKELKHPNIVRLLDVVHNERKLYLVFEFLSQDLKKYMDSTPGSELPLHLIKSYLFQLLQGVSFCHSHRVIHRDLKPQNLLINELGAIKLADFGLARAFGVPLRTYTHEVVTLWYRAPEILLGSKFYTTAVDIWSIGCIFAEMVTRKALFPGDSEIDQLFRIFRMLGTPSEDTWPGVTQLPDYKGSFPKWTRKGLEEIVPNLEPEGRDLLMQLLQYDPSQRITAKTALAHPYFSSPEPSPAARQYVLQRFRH
MAP kinase-activated protein kinase 3 (Homo sapiens), sequence (Q16644 whole entry, looked up): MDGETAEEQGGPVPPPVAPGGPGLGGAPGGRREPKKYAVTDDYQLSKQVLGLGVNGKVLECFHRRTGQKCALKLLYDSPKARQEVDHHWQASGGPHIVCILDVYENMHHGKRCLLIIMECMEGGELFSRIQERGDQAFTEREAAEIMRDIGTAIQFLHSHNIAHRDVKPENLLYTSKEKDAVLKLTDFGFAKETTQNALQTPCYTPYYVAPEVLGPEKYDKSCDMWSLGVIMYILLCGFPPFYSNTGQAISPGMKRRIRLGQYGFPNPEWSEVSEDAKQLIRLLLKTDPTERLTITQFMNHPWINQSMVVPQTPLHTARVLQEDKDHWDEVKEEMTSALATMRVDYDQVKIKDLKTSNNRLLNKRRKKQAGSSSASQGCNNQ

- residual activity [1]: 103%
- residual activity (Homo sapiens [2]): 97.5%
- residual activity [3]: 104%
- residual activity [4]: 85.5%
- residual activity [5]: 124%
- residual activity [6]: 96.5%
- concentration at 708 h [7]: 12 ng/mL
- residual activity [8]: 95.5%
- IC50 [9]: 17.5 nM
- residual activity (Homo sapiens [11]): 87%
- residual activity [12]: 102%
- residual activity [13]: 87.5%
- residual activity [14]: 112%
- residual activity [15]: 109%
- residual activity [16]: 101%
- residual activity [17]: 125%
- residual activity [18]: 90%
- residual activity [19]: 117%
- residual activity [20]: 108%
- inhibition [21]: 14%
- residual activity [22]: 134%
- residual activity [23]: 114%
- residual activity [24]: 99.5%
SMILES: C[C@@H]1CCc2ncc(F)cc2[C@H]2CCCN2c2ccn3ncc(c3n2)C(=O)N1 [SELITRECTINIB]
- inhibition (COR-L105): inactive
- residual activity [10]: 94%
- inhibition (NCI-H441): inactive
- inhibition (CML-T1): inactive
- inhibition (SH-4): inactive
- inhibition (CGTH-W-1): inactive
